From ChEMBL document CHEMBL1201862, “PubChem BioAssay data set” (2004)
Where “and” joins values, the source holds several entries; their conditions need not be identical. Equal values may be shown once.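 Method: 48-hour compound exposure of cells in 96-well plates, five concentrations, linear interpolation of endpoints. GI50 is the concentration that inhibits growth by half.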 Calls of active or inactive are those of the source. Rule as the data show it: active = GI50 up to about 1.1 µM and inactive = higher.

What was measured:
Test in all cases: NCI anticancer screen, dose series, 48 h
[1] = test system: MDA-MB-231
[2] = test system: NCI-H522
[3] = test system: MDA-MB-435
[4] = test system: A498
[5] = test system: COLO 205
[6] = test system: NCI-H23
[7] = test system: HCT-15
[8] = test system: SF-539
[9] = test system: HL-60
[10] = test system: SW-620
[11] = test system: HCT-116
[12] = test system: SN12C
[13] = test system: RPMI-8226
[14] = test system: M14
[15] = test system: PC-3
[16] = test system: SF-295
[17] = test system: OVCAR-5
[18] = test system: ACHN
[19] = test system: A549
[20] = test system: MOLT-4
[21] = test system: SK-MEL-2
[22] = test system: UACC-257
[23] = test system: T47D
[24] = test system: NCI/ADR-RES
[25] = test system: HT-29
[26] = test system: KM12
[27] = test system: UO-31
[28] = test system: HOP-62
[29] = test system: OVCAR-4
[30] = test system: 786-0
[31] = test system: SR
[32] = test system: U-251
[33] = test system: SK-OV-3
[34] = test system: Hs-578T
[35] = test system: SK-MEL-5
[36] = test system: SF-268
[37] = test system: UACC-62
[38] = test system: K562
[39] = test system: MCF7
[40] = test system: OVCAR-8
[41] = test system: NCI-H226
[42] = test system: IGROV-1
[43] = test system: TK-10
[44] = test system: SK-MEL-28
[45] = test system: EKVX
[46] = test system: OVCAR-3
[47] = test system: SNB-19
[48] = test system: DU-145
[49] = test system: BT-549
[50] = test system: CAKI-1
[51] = test system: RXF 393
[52] = test system: Malme-3M
[53] = test system: MDA-N
[54] = test system: SNB-75
[55] = test system: HOP-92
[56] = test system: HCC 2998

Which results are given for `CN(C(=O)[C@@H](NC(=O)OC(C)(C)C)c1ccccc1)[C@H]1CCCC[C@@H]1N1CCCC1`?
GI50 [1]: > 100 µM (inactive); GI50 [2]: > 100 µM (inactive); GI50 [3]: > 100 µM (inactive); GI50 [4]: > 100 µM (inactive); GI50 [5]: > 100 µM (inactive); GI50 [6]: > 100 µM (inactive); GI50 [7]: > 100 µM; GI50 [8]: > 100 µM (inactive); GI50 [9]: > 100 µM (inactive); GI50 [10]: > 100 µM (inactive); GI50 [11]: > 100 µM (inactive); GI50 [12]: > 100 µM (inactive); GI50 [13]: > 100 µM (inactive); GI50 [14]: > 100 µM (inactive); GI50 [15]: > 100 µM (inactive); GI50 [16]: > 100 µM (inactive); GI50 [17]: > 100 µM (inactive); GI50 [18]: > 100 µM (inactive); GI50 [19]: > 100 µM (inactive); GI50 [20]: > 100 µM (inactive); GI50 [21]: > 100 µM (inactive); GI50 [22]: 72.6 µM (inactive); GI50 [23]: > 100 µM (inactive); GI50 [24]: > 100 µM (inactive); GI50 [25]: > 100 µM (inactive); GI50 [26]: > 100 µM (inactive); GI50 [27]: > 100 µM (inactive); GI50 [28]: > 100 µM (inactive); GI50 [29]: > 100 µM (inactive); GI50 [30]: > 100 µM (inactive); GI50 [31]: > 100 µM (inactive); GI50 [32]: > 100 µM (inactive); GI50 [33]: > 100 µM (inactive); GI50 [34]: > 100 µM (inactive); GI50 [35]: > 100 µM (inactive); GI50 [36]: > 100 µM (inactive); GI50 [37]: > 100 µM (inactive); GI50 [38]: > 100 µM (inactive); GI50 [39]: > 100 µM (inactive); GI50 [40]: > 100 µM (inactive); GI50 [41]: > 100 µM (inactive); GI50 [42]: > 100 µM (inactive); GI50 [43]: > 100 µM (inactive); GI50 [44]: > 100 µM (inactive); GI50 [45]: > 100 µM (inactive); GI50 [46]: > 100 µM (inactive); GI50 [47]: > 100 µM (inactive); GI50 [48]: > 100 µM (inactive); GI50 [49]: > 100 µM (inactive); GI50 [50]: > 100 µM (inactive)

What does the source list for `C=CCN1C(=O)/C(=C/c2ccc(OC)cc2)N=C1SC1OC(COC(C)=O)C(OC(C)=O)C(OC(C)=O)C1OC(C)=O` (stereo not given)?
GI50 [4]: 31.9 µM (inactive) and 32.4 µM (inactive); GI50 [5]: 67.8 µM (inactive) and 41.3 µM (inactive); GI50 [6]: 33.5 µM (inactive) and 36.9 µM (inactive); GI50 [7]: 36.4 µM and 43.7 µM; GI50 [10]: 60 µM (inactive) and 36.9 µM (inactive); GI50 [11]: 30.8 µM (inactive); GI50 [12]: 29.6 µM (inactive); GI50 [13]: 32.8 µM (inactive) and 43.3 µM (inactive); GI50 [14]: 39.4 µM (inactive); GI50 [19]: 34.8 µM (inactive); GI50 [22]: 29.4 µM (inactive) and 20.7 µM (inactive); GI50 [23]: 23.8 µM (inactive); GI50 [24]: 30.8 µM (inactive) and 48.8 µM (inactive); GI50 [25]: 8.45 µM (inactive); GI50 [51]: 27 µM (inactive) and 25.3 µM (inactive); GI50 [30]: 17.2 µM (inactive); GI50 [31]: 34.5 µM (inactive) and 25.9 µM (inactive); GI50 [33]: 18.1 µM (inactive) and 34.7 µM (inactive); GI50 [35]: 19.5 µM (inactive) and 29 µM (inactive); GI50 [52]: 44.2 µM (inactive) and 57.5 µM (inactive); GI50 [38]: 36.7 µM (inactive) and 24.5 µM (inactive); GI50 [53]: 37.8 µM (inactive); GI50 [54]: 19.1 µM (inactive) and 35.5 µM (inactive); GI50 [41]: 21.6 µM (inactive) and 32.1 µM (inactive); GI50 [45]: 28.2 µM (inactive) and 21.4 µM (inactive); GI50 [47]: 32 µM (inactive); GI50 [55]: 12.7 µM (inactive) and 17.3 µM (inactive); GI50 [48]: 23.4 µM (inactive) and 45.3 µM (inactive); GI50 [49]: 27.2 µM (inactive) and 19.8 µM (inactive); GI50 [56]: 39.7 µM (inactive) and 64.3 µM (inactive)
